In assay [1] the target is T1, D3 dopamine receptor (Homo sapiens (Human), UniProt P35462). Briefly: D3 receptor tolerance and SRT: GIRK response to repeated agonist application in AtT-20 cells. The assay is classed as cell-based. To be noted: AtT-20 cells expressing human D3, 100-300 nM agonist, repeated ~60 s applications. On the procedure:
To determine whether a compound abolishes the D3 receptor tolerance and SRT, the D3 receptor-activated GIRK response to two consecutive treatments of the lead compound is measured. […] Drug solutions were delivered to cells via a multi-barreled micropipette array. The current responses were normalized to the cell capacitance, to account for variation in cell size.
To identify agonists that might modulate D3 receptor tolerance and SRT properties, ten distinct agonists were screened for their ability to induce tolerance and SRT, using the D3 receptor-GIRK channel signaling pathway as an assay.

For a further assay, the target named is D2L dopamine receptor (Homo sapiens (Human), UniProt P14416). As to the kind of experiment: GIRK channel activation, whole cell voltage clamp, AtT-20 cells stably expressing D2L. In kind it is cell-based. To be noted: for GIRK channel activation: agonist type: versus full agonist quinpirole. On the procedure: (§1) The activation of the GIRK channels was measured electrophysiologically using whole cell voltage clamp recording (Kuzhikandathil et al., 2004, Mol. Cell. Neurosci. 26:144-155). The GIRK channel responses elicited with new ligands were compared to quinpirole, a classical full agonist of D2, D3 and D4 dopamine receptors. The adenylyl cyclase inhibition was determined using a commercially available ELISA assay (Westrich & Kuzhikandathil, 2007, Biochim. Biophys. Acta-Mol. Cell. Res. 1773:1747-1758).
(§2) In the first assay, whole cell voltage clamp recording is used to measure GIRK response to increasing concentrations of the lead compound (0.01 nM to 3,000 nM dose range). The EC50 values for each receptor subtype is determined by fitting the data points using the Hill equation.
(§3) AtT-20 mouse pituitary cells were grown in Ham's F10 medium with 5% FBS, 10% heat-inactivated horse serum, 2 mM glutamine and 50 μg/ml gentamicin (Invitrogen, Carlsbad, Calif.). AtT-20 cells stabling expressing the human D2S, D2L, D3, and D4.2 and receptor were maintained in the above F10 culture media supplemented with 500 μg/ml G418 (Invitrogen). For electrophysiological characterization, cells were plated onto glass coverslips coated with 40 μg/ml poly L-lysine (Sigma-Aldrich). The generation and characterization of the AtT-20 cells stably expressing various human dopamine receptors have been previously reported (Kuzhikandathil & Oxford, 2000, J. Gen. Physiol. 115:697-706; Kuzhikandathil et al., 1998, Mol. Cell. Neurosci. 12:390-402; Kuzhikandathil & Bartoszyk, 2006, Neuropharm. 51:873-884; Westrich & Kuzhikandathil, 2007, Biochim. Biophys. Acta-MCR 1773:1747-1758; Kuzhikandathil et al., 2004, Mol. Cell. Neurosci. 26:144-155; Westrich et al., 2010, Biochem. Pharmacol. 79:897-907).
(§4) Agonist-activated currents were measured by the whole-cell patch clamp technique in voltage clamp and current clamp mode as described previously (Kuzhikandathil & Oxford, 2000, J. Gen. Physiol. 115:697-706; Kuzhikandathil et al., 1998, Mol. Cell. Neurosci. 12:390-402; Kuzhikandathil & Bartoszyk, 2006, Neuropharm. 51:873-884; Westrich & Kuzhikandathil, 2007, Biochim. Biophys. Acta-MCR 1773:1747-1758; Kuzhikandathil et al., 2004, Mol. Cell. Neurosci. 26:144-155; Westrich et al., 2010, Biochem. Pharmacol. 79:897-907). Drug solutions were delivered to cells via a multi-barreled micropipette array. The current responses were normalized to the cell capacitance, to account for variation in cell size.
(§5) To compare the functional effects of the new class of D3 receptor agonists, PBZI (Table 2) and ES609 (Table 3) were tested on AtT-20 cells stably expressing human D3, D2S, D2L or D4.2. Functional efficacy was determined by assessing the ability of PBZI and ES609 to inhibit adenylyl cyclase or activate GIRK channels coupled to these “D2-like” dopamine receptors. The EC50 values of PBZI and ES609 for inhibiting adenylyl cyclase and activating GIRK channels were in the range of 0.2 nM to 30 nM for D3 receptors.

The next assay concerns parental AtT-20 cells. Briefly: GIRK response in parental (non-transfected) AtT-20 cells. The assay is classed as cell-based, mouse. Particulars: 300 nM, no exogenous D3 receptor expression. Here is the method:
To determine whether a compound is an agonist of the D3 dopamine receptor the AtT-20 neuroendocrine cell line that stably expresses the human D3 receptors is used. In the initial screen, the ability of 300 nM lead compound to activate G-protein coupled inward rectifier potassium (GIRK) channels (FIG. 1) is measured using whole cell voltage clamp recording. The protocol has been previously used for performing whole cell voltage clamp and measuring agonist-induced GIRK response. The acute ligand-induced GIRK currents are compared to that elicited by equivalent concentration of native agonist dopamine or full agonist quinpirole. The specificity of the response is determined by measuring GIRK response elicited by the lead compound in non-transfected AtT-20 cells and also in the presence of D2-like dopamine receptor antagonist eticlopride and D3 receptor selective antagonist GR218231 ((+)-(2R)-1,2,3,4-tetrahydro-6-[[(4-methoxyphenyl)sulfonyl]methyl]-N,N-dipropyl-2-naphthalenamine). To be considered for further development, the lead compound should generate a GIRK response that is equal to or greater than that elicited by equivalent concentration (300 nM) of dopamine or quinpirole.
AtT-20 mouse pituitary cells were grown in Ham's F10 medium with 5% FBS, 10% heat-inactivated horse serum, 2 mM glutamine and 50 μg/ml gentamicin (Invitrogen, Carlsbad, Calif.). AtT-20 cells stabling expressing the human D2S, D2L, D3, and D4.2 and receptor were maintained in the above F10 culture media supplemented with 500 μg/ml G418 (Invitrogen). […]
Agonist-activated currents were measured by the whole-cell patch clamp technique in voltage clamp and current clamp mode as described previously (Kuzhikandathil & Oxford, 2000, J. Gen. Physiol. 115:697-706; Kuzhikandathil et al., 1998, Mol. Cell. Neurosci. 12:390-402; Kuzhikandathil & Bartoszyk, 2006, Neuropharm. 51:873-884; Westrich & Kuzhikandathil, 2007, Biochim. Biophys. Acta-MCR 1773:1747-1758; Kuzhikandathil et al., 2004, Mol. Cell. Neurosci. 26:144-155; Westrich et al., 2010, Biochem. Pharmacol. 79:897-907). […]

Assay [2] has as its target T2, D2S dopamine receptor (Homo sapiens (Human), UniProt P14416). Briefly: GIRK channel activation, whole cell voltage clamp, AtT-20 cells stably expressing D2S. In kind it is cell-based. Particulars: for GIRK channel activation: agonist type: versus full agonist quinpirole. On the procedure:
as §1, §2, §3, §4, §5

The test system of assay [3] is intrastriatal 6-OHDA lesioned rats. Briefly: Forelimb stepping test in intrastriatal 6-OHDA lesioned rats. Particulars: for motor deficits in a rat PD model: FIG. 18.
The target in assay [4] is T1, D3 dopamine receptor. Briefly: Adenylyl cyclase inhibition (forskolin-induced cAMP) in AtT-20 cells stably expressing D3. Particulars: for Adenylyl cyclase inhibition: agonist type: versus full agonist quinpirole. In kind it is cell-based. Here is the method: (§6) In the second functional assay, the ability of D2-like dopamine receptors to inhibit adenylyl cyclase activity is assessed. The ability of the lead compound to dose-dependently decrease forskolin-induced cAMP levels is measured. The IC50 values for each receptor subtype is determined by fitting the data points using the Hill equation. Previously, the EC50 and IC50 values for dopamine and quinpirole has been determined in these cell lines in both functional assays.
as §3
(§7) Cyclic AMP (cAMP) levels were assessed using the cAMP Biotrak Enzymeimmunoassay (EIA) kit (GE Healthcare, Piscataway, N.J., USA) as described previously (Kuzhikandathil & Bartoszyk, 2006, Neuropharm. 51:873-884). The cAMP levels in each treated sample were assayed in triplicate and the entire experiment repeated three independent times.
as §5

Assay [5] addresses T2, D2S dopamine receptor. As to the kind of experiment: Adenylyl cyclase inhibition (forskolin-induced cAMP) in AtT-20 cells stably expressing D2S. In kind it is cell-based. To be noted: for pEC50: AtT-20 cells; for Adenylyl cyclase inhibition: agonist type: versus full agonist quinpirole. Here is the method: as §6, §3, §7, §5
Setting [6] is: AtT-20 cells, D3, read-out: Adenylyl cyclase inhibition EC50.
The mark [7] stands for this setting: D3 receptors, range over both compounds and both assays, read-out: EC50 for inhibiting adenylyl cyclase and activating GIRK channels.

Structures are written as SMILES. pEC50: −log10 of the molar value. Where “and” joins values, the source holds several entries; their conditions need not be identical. Equal values may be shown once. Entries after “also recorded” stand apart in the source; their conditions may differ. Read-outs that look alike come from different tables or passages of the source. Marks after values point to notes of the source that are not given here.

Sequence of D2L dopamine receptor (P14416 whole entry): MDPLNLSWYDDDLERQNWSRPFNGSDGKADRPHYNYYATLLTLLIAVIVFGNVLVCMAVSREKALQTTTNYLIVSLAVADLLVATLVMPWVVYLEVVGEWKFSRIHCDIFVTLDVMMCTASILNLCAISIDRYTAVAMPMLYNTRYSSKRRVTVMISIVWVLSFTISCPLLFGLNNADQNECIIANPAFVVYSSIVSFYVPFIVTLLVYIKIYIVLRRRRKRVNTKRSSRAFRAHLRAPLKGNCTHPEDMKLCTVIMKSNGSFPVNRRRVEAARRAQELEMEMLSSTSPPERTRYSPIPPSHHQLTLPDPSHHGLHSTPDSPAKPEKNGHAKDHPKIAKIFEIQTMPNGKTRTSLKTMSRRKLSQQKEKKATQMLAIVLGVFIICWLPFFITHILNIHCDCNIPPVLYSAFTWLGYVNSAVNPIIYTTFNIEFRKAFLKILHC
T2 sequence (P14416 other isoform, or with tags, fused parts or gaps): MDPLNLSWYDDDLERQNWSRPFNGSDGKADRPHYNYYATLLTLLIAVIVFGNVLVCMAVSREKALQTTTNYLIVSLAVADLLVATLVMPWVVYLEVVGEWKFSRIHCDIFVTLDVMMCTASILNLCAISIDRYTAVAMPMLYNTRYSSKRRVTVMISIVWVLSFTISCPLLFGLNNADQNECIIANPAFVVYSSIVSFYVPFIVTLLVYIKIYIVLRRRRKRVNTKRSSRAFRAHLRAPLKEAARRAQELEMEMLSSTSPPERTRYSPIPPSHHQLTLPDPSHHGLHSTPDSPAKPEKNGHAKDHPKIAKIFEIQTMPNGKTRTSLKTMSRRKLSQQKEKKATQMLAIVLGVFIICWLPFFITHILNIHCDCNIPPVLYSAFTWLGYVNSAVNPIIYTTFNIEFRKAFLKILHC
T1 sequence (P35462 other isoform, or with tags, fused parts or gaps): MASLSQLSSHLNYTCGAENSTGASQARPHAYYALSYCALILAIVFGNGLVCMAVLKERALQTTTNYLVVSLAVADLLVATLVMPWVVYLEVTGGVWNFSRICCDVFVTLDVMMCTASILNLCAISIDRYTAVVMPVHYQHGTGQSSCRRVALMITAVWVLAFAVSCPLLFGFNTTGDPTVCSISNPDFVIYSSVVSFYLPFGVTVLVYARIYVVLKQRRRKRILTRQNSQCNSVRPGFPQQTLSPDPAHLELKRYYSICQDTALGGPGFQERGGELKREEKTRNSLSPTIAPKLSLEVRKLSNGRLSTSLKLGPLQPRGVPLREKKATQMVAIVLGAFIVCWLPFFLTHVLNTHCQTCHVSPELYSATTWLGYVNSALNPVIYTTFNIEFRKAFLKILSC

As a reminder, the pEC50 is the negative decadic logarithm of the EC50, by convention in mol/L. As to `CC(N)CCc1ccccc1Cl` (centres unmarked) [ES609], the “D3 receptor tolerance and SRT properties (agonist-induced GIRK response)” value was “did not induce tolerance and SRT; also recorded: did not show tolerance and SRT” at D3 dopamine receptor [1]; “also abolished D3 receptor tolerance and SRT properties” at D3 dopamine receptor [1] (listed as ES 609). Also, the “GIRK channel activation Ratio of ES609 to quinpirole response (at 300 nM)” value on D2L dopamine receptor (300 nM) was 0.32*; at D2S dopamine receptor [2] (300 nM) it was 0.30*. For the same molecule, the “GIRK channel activation: agonist type” value at D2L dopamine receptor was “partial agonist”; on D2L dopamine receptor (listed as ES0609), “Partial”; at D2S dopamine receptor [2], “partial agonists”; at D2S dopamine receptor [2] (listed as ES0609), “Partial”. Further, the “GIRK currents in parental AtT-20 cells” value is on record as “neither 300 nM PBZI (hatched bar) nor 300 nM ES609 (cross hatched bar) induced GIRK currents” with parental AtT-20 cells and “did not elicit GIRK currents” with parental AtT-20 cells (listed as ES 609). On D2S dopamine receptor [2] (100 nM), the “GIRK current compared with quinpirole-induced current” value was “significantly less than the quinpirole-induced current”. Besides, the “motor deficits in a rat PD model” value in assay [3] is given as “improve motor deficits”. In addition, the pEC50 is 9.82 on D3 dopamine receptor [4] (setting [6]), 7.52 to 9.70 at D3 dopamine receptor [4] (setting [7]) and 8.62 on D2S dopamine receptor [5]. The “Adenylyl cyclase inhibition Ratio of ES609 to quinpirole response (at 300 nM)” value at D3 dopamine receptor [4] (D3, 300 nM) was 0.71; at D2S dopamine receptor [5] (300 nM), 0.29*. Besides, the “Adenylyl cyclase inhibition: agonist type” value at D3 dopamine receptor [4] (D3) is on record as “full agonists”; at D3 dopamine receptor [4] (D3, listed as ES0609), “Full”; on D2S dopamine receptor [5], “partial agonists”; at D2S dopamine receptor [5] (listed as ES0609) it was “Partial”.

Consider `CCCN1CC[C@@H]2c3cc(O)ccc3CC[C@@H]21` [PBZI, (3aS,9bR)-3-propyl-1,2,3a,4,5,9b-hexahydrobenzo[e]indol-8-ol], for which the “D3 receptor tolerance and SRT properties (agonist-induced GIRK response)” value on D3 dopamine receptor [1] was “does not elicit tolerance and SRT properties; also recorded: abolished both tolerance and SRT properties; also recorded: did not induce tolerance; also recorded: does not induce tolerance and SRT; also recorded: did not show either tolerance or SRT properties; also recorded: completely abolished the receptors' tolerance and SRT properties”; at D3 dopamine receptor [1] (listed as cis-80H-PBZI), “abolished the tolerance property”. Besides, the “GIRK channel activation Ratio of PBZI to quinpirole response (at 300 nM)” value at D2L dopamine receptor (300 nM) is 0.75; on D2S dopamine receptor [2] (300 nM), 0.48*. Moreover, the “GIRK channel activation: agonist type” value on D2L dopamine receptor is “full agonist”; on D2S dopamine receptor [2], “partial agonists”. For the same molecule, in the assay on parental AtT-20 cells, the “GIRK currents in parental AtT-20 cells” value is given as “neither 300 nM PBZI (hatched bar) nor 300 nM ES609 (cross hatched bar) induced GIRK currents”. Besides, the negative logarithm of the EC50 (pEC50) was 7.28 on D2S dopamine receptor [2] (AtT-20 cells); 7.46 on D3 dopamine receptor [4] (setting [6]); 7.52 to 9.70 at D3 dopamine receptor [4] (setting [7]); 6.85 and < 6.82 on D2S dopamine receptor [5]. Also, the “motor deficits in a rat PD model” value in assay [3] is listed as “improve motor deficits”. Further, the “effect on beneficial effect of levodopa on bradykinesia/akinesia (stepping test)” value in assay [3] (co-administration of PBZI and levodopa) is on record as “did not attenuate the beneficial effect of levodopa”. The “Adenylyl cyclase inhibition Ratio of PBZI to quinpirole response (at 300 nM)” value is 0.97 on D3 dopamine receptor [4] (D3, 300 nM) and 0.29* at D2S dopamine receptor [5] (300 nM). Moreover, the “Adenylyl cyclase inhibition: agonist type” value at D3 dopamine receptor [4] (D3) was “full agonists and full”; on D2S dopamine receptor [5], “partial agonists”.
